Values after ≈ are worked out from the molar mass of the structure shown.
Key:
Assay in all cases: in vitro antibacterial evaluation, MIC by broth dilution
Format in all cases: cell-based
Conditions in all cases: broth dilution, 18 hours at 35° C.
Enterococcus sp. = tested on: Enterococcus sp.
Procedure, shortened: (§1)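 Read-out: the lowest concentration at which the test strain fails to grow. Serial dilutions (64-0.06 μg/mL) in Muller-Hinton II […], 5×10^5 CFU/mL inoculum, NCCLS M7-A2 procedure.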

Staphylococcus sp. = tested on: Staphylococcus sp.
Procedure, shortened: as §1

Streptococcus sp. = tested on: Streptococcus sp.
Procedure, shortened: as §1

Escherichia coli = tested on: Escherichia coli
Procedure, shortened: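 Broth dilution MIC per NCCLS M7-A2 in Mueller-Hinton II medium, inoculum 5×10^5 CFU/mL, antibiotic range 64-0.06 μg/mL. MIC taken as lowest concentration inhibiting growth.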

Which results are given for `CCCCCCC(=O)Nc1cc(CC2NC(=O)C(C(C)c3ccccc3)NC(=O)CNC(=O)C(CO)NC(=O)C(C(O)C3CNC(=N)N3C3OC(CO)C(O)C(O)C3O)NC(=O)C(C(O)C3CNC(=N)N3)NC2=O)ccc1O` (stereo not drawn) [Example 16, Cyclo[glycyl-β-methylphenylalanyl-3-(heptanamido)tyrosyl-3-(2-iminoimidazolidin-4-yl)seryl-3-(3-hexopyranosyl-2-iminoimidazolidin-4-yl)serylseryl]]?
MIC Enterococcus faecalis (ATCC 29212) (Enterococcus sp.; strain ATCC 29212): >128 µg/mL; MIC Enterococcus faecalis (GC 2242) (Enterococcus sp.; strain GC 2242): >128 µg/mL; MIC Enterococcus faecium (GC 2243) (Enterococcus sp.; strain GC 2243): 128 µg/mL (≈ 117 µM); MIC Enterococcus faecalis (GC 2691) (Enterococcus sp.; strain GC 2691): >128 µg/mL; MIC Enterococcus faecalis (GC 3059) (Enterococcus sp.; strain GC 3059): >128 µg/mL; MIC Enterococcus faecalis (GC 4552) (Enterococcus sp.; strain GC 4552): >128 µg/mL; MIC Enterococcus faecalis (GC 4553) (Enterococcus sp.; strain GC 4553): 64 µg/mL (≈ 58.3 µM); MIC Enterococcus faecalis (GC 4554) (Enterococcus sp.; strain GC 4554): >128 µg/mL; MIC Enterococcus faecium (GC 4556) (Enterococcus sp.; strain GC 4556): >128 µg/mL; MIC Enterococcus faecium (GC 4557) (Enterococcus sp.; strain GC 4557): 16 µg/mL (≈ 14.6 µM); MIC Enterococcus avium (GC 4558) (Enterococcus sp.; strain GC 4558): 128 µg/mL (≈ 117 µM); MIC Enterococcus faecalis (GC 6189) (Enterococcus sp.; strain GC 6189): >128 µg/mL; MIC Staphylococcus aureus (ATCC 29213) (Staphylococcus sp.; strain ATCC 29213): 128 µg/mL (≈ 117 µM); MIC Staphylococcus aureus (GC 1131) (Staphylococcus sp.; strain GC 1131): 128 µg/mL (≈ 117 µM); MIC Staphylococcus aureus (GC 3051) (Staphylococcus sp.; strain GC 3051): 128 µg/mL (≈ 117 µM); MIC Staphylococcus aureus (GC 3053) (Staphylococcus sp.; strain GC 3053): 128 µg/mL (≈ 117 µM); MIC Staphylococcus aureus (GC 4541) (Staphylococcus sp.; strain GC 4541): 64 µg/mL (≈ 58.3 µM); MIC Staphylococcus aureus (GC 4542) (Staphylococcus sp.; strain GC 4542): 128 µg/mL (≈ 117 µM); MIC Staphylococcus aureus-SMITH (GC 4543) (Staphylococcus sp.; strain GC 4543): 64 µg/mL (≈ 58.3 µM); MIC Staphylococcus aureus (GC 4544) (Staphylococcus sp.; strain GC 4544): 128 µg/mL (≈ 117 µM); MIC Staphylococcus aureus (GC 4545) (Staphylococcus sp.; strain GC 4545): 32 µg/mL (≈ 29.1 µM); MIC Staphylococcus haemolyticus (GC 4546) (Staphylococcus sp.; strain GC 4546): 8 µg/mL (≈ 7.28 µM); MIC Coagulase Negative Staphylococcus (GC 4547) (Staphylococcus sp.; strain GC 4547): 16 µg/mL (≈ 14.6 µM); MIC Coagulase Negative Staphylococcus (GC 4548) (Staphylococcus sp.; strain GC 4548): 32 µg/mL (≈ 29.1 µM); MIC Coagulase Negative Staphylococcus (GC 4549) (Staphylococcus sp.; strain GC 4549): 4 µg/mL (≈ 3.64 µM); MIC Coagulase Negative Staphylococcus (GC 4551) (Staphylococcus sp.; strain GC 4551): 32 µg/mL (≈ 29.1 µM); MIC Coagulase Negative Staphylococcus (GC 6257) (Staphylococcus sp.; strain GC 6257): 8 µg/mL (≈ 7.28 µM); MIC Streptococcus pneumoniae (ATCC 6301) (Streptococcus sp.; strain ATCC 6301): 128 µg/mL (≈ 117 µM); MIC Streptococcus pneumoniae (GC 1894) (Streptococcus sp.; strain GC 1894): 64 µg/mL (≈ 58.3 µM); MIC Streptococcus pyogenes (GC 4563) (Streptococcus sp.; strain GC 4563): 16 µg/mL (≈ 14.6 µM); MIC Streptococcus agalactiae (GC 4564) (Streptococcus sp.; strain GC 4564): 64 µg/mL (≈ 58.3 µM); MIC Streptococcus pneumoniae (GC 4565) (Streptococcus sp.; strain GC 4565): 128 µg/mL (≈ 117 µM); MIC Escherichia coli (ATCC 25922) (Escherichia coli; strain ATCC 25922): 32 µg/mL (≈ 29.1 µM); MIC Escherichia coli (GC 4559) (Escherichia coli; strain GC 4559): 32 µg/mL (≈ 29.1 µM); MIC Escherichia coli (GC 4560) (Escherichia coli; strain GC 4560): 8 µg/mL (≈ 7.28 µM)
